Data from patent publication US20050137807A1, “Method of visualization of the ADME properties of chemical substances” (priority 2003, published 2005).
Where two headings read alike, the source gives them in different places.

What was measured:
[1] = target: human serum albumin (Homo sapiens, UniProt P02768); assay: binding constant to human serum albumin (TRANSIL technology)
Description: The effective molecular weight (MW) is obtained simply from the respective empirical formula of the substance. The waters solubilities and the typical administered dosages of these commercially available products are furthermore known from the literature.
The ADME maps in FIGS. 5 to 10 show by way of example a selection of commercially available pharmaceutical substances. The substance names and the associated experimental measurement values for their physicochemical properties are summarised in Table 1.

[2] = membrane affinity as a measure of the lipophilicity (TRANSIL technology); format: physicochemical
[3] = log binding constant to human serum albumin, TRANSIL

Chain of human serum albumin (P02768 25-609): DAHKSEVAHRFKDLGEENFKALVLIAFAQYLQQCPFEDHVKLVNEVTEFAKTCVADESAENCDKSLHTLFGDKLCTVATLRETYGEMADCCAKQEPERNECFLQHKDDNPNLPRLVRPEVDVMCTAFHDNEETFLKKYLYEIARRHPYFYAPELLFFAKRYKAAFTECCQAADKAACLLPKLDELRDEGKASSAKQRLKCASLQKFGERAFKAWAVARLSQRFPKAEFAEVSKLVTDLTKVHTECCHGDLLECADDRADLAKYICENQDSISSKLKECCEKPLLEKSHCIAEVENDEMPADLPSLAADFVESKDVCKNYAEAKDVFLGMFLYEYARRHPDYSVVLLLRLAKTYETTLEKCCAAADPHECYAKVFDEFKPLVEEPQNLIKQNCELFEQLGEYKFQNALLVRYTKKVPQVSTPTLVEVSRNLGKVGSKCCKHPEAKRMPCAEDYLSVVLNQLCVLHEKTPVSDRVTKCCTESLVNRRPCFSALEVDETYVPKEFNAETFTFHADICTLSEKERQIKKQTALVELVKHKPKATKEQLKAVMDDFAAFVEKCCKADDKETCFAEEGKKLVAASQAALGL

Compound | LogHSA ([1]; human) | LogMA [2] | LogHSA [1, 3] | LogHSA [1]
CC(C)n1c(/C=C/C(O)CC(O)CC(=O)O)c(-c2ccc(F)cc2)c2ccccc21 (stereo not shown) [Fluvastatin] | −5.678 |  |  | 
O=C1CN=C(c2ccccc2)c2cc(Cl)ccc2N1 [Nordiazepam] |  | 3.086 |  | 
COc1ccc([C@@H]2Sc3ccccc3N(CCN(C)C)C(=O)[C@@H]2OC(C)=O)cc1 [Diltiazem] |  | 2.544 |  | 
CC(C)NCC(O)COc1ccc(CC(N)=O)cc1 (stereo not shown) [Atenolol] |  | 0.602 |  | 
COCCOC(=O)C1=C(C)NC(C)=C(C(=O)OC(C)C)C1c1cccc([N+](=O)[O-])c1 (stereo not shown) [Nimodipine] | −5.000 |  |  | 
CC(CN1c2ccccc2Sc2ccccc21)N(C)C (stereo not shown) [Promethazine] | −3.028 | 3.992 |  | 
COc1cc([C@@H]2c3cc4c(cc3[C@@H](O[C@@H]3O[C@@H]5CO[C@@H](C)O[C@H]5[C@H](O)[C@H]3O)[C@H]3COC(=O)[C@H]23)OCO4)cc(OC)c1O [Etoposide] |  | 2.000 |  | 
CN1CCN(c2c(F)cc3c(=O)c(C(=O)O)cn(CCF)c3c2F)CC1 [Fleroxacin] | −2.523 | 1.301 |  | 
C[C@H](N[C@@H](CCc1ccccc1)C(=O)O)C(=O)N1CCC[C@H]1C(=O)O [Enalaprilate] |  | 0.176 |  | 
Cc1cn([C@H]2C[C@H](N=[N+]=[N-])[C@@H](CO)O2)c(=O)[nH]c1=O [Zidovudine] |  | 0.903 |  | 
CC1=C(C(=O)O)N2C(=O)[C@@H](NC(=O)[C@H](N)c3ccccc3)[C@H]2SC1 [Cephalexine] |  | 0.778 |  | 
COCCc1ccc(OCC(O)CNC(C)C)cc1 (stereo not shown) [Metoprolol] | −2.000 | 1.591 |  | 
Cc1ccccc1N1C(=O)c2cc(S(N)(=O)=O)c(Cl)cc2NC1C (stereo not shown) [Metolazone] | −4.201 | 1.531 |  | 
NCCCC[C@H](N[C@@H](CCc1ccccc1)C(=O)O)C(=O)N1CCC[C@H]1C(=O)O [Lisinopril] |  | 0.845 |  | 
Clc1cccc(Cl)c1N=C1NCCN1 [Clonidine] | −2.463 | 1.602 |  | 
NC(=O)N1c2ccccc2C=Cc2ccccc21 [Carbamazepine] | −2.539 | 2.519 |  | 
CC1(C)S[C@@H]2[C@H](NC(=O)[C@H](N)c3ccccc3)C(=O)N2[C@H]1C(=O)O [Ampicillin] |  | 1.114 |  | 
C[C@H]1O[C@@H](O[C@H]2[C@@H](O)C[C@H](O[C@H]3[C@@H](O)C[C@H](O[C@H]4CC[C@@]5(C)[C@H](CC[C@@H]6[C@@H]5C[C@@H](O)[C@]5(C)[C@@H](C7=CC(=O)OC7)CC[C@]65O)C4)O[C@@H]3C)O[C@@H]2C)C[C@H](O)[C@@H]1O [Digoxin] |  | 1.477 | −2.284 | 
CC(=O)Nc1ccc(OCC(O)CNC(C)C)cc1 (stereo not shown) [Practolol] |  | 1.301 |  | 
C[C@]12CCC(=O)C=C1CC[C@@H]1[C@@H]2[C@@H](O)C[C@@]2(C)[C@H]1CC[C@]2(O)C(=O)CO [Hydrocortisone] |  | 2.716 |  | 
CO[C@@]1(NC(=O)Cc2cccs2)C(=O)N2C(C(=O)O)=C(COC(N)=O)CS[C@@H]21 [Cefoxitin] |  | 1.000 |  | 
Gentamicin |  | 0.000 |  | 
O=C(O)Cc1ccccc1Nc1c(Cl)cccc1Cl [Diclofenac] |  | 2.940 |  | 
CNC(=C[N+](=O)[O-])NCCSCc1ccc(CN(C)C)o1 [Ranitidine] | −2.155 |  |  | 
CC1(C)S[C@@H]2[C@H](NC(=O)[C@H](N)c3ccc(O)cc3)C(=O)N2[C@H]1C(=O)O [Amoxicilin] |  | 0.778 | −2.301 | 

Compound | LogHSA ([1]; human) | LogMA [2] | LogHSA [1, 3] | LogHSA [1]
CCn1cc(C(=O)O)c(=O)c2cc(F)c(N3CCNCC3)cc21 [Norfloxacin] | −3.000 | 0.602 |  | 
Cc1nnc(SCC2=C(C(=O)O)N3C(=O)[C@@H](NC(=O)Cn4cnnn4)[C@H]3SC2)s1 [Cefazolin] |  | 0.903 | −3.456 | 
O=C(O)c1cn(C2CC2)c2cc(N3CCNCC3)c(F)cc2c1=O [Ciprofloxacin] |  | 0.954 |  | 
CN/C(=N/CCSCc1nc[nH]c1C)NC#N [Cimetidine] | −1.876 | 1.176 |  | 
CN(C)CCCN1c2ccccc2Sc2ccc(Cl)cc21 [Chlorpromazine] | −3.284 | 4.075 |  | 
O=C(O)c1cc(/N=N/c2ccc(S(=O)(=O)Nc3ccccn3)cc2)ccc1O [Sulfasalacine] |  | 2.748 |  | 
OC(CCN1CCCCC1)(c1ccccc1)C1CCCCC1 (stereo not shown) [Trihexylphenidyl] |  | 2.415 | −3.006 | 
CCCC(C)C1(CC)C(=O)NC(=O)NC1=O (stereo not shown) [Pentobarbital] |  | 2.176 | −2.523 | 
COC(=O)C1=C(C)NC(C)=C(C(=O)OCCN(C)Cc2ccccc2)C1c1cccc([N+](=O)[O-])c1 (stereo not shown) [Nicardipine] | −5.000 |  |  | 
Nc1nc(O)c2ncn(COC(CO)CO)c2n1 [Ganciclovir] |  | −0.301 |  | 
O=C(CCCN1CCC(O)(c2ccc(Cl)cc2)CC1)c1ccc(F)cc1 [Haloperidol] | −2.745 | 3.723 |  | 
CCN1CCN(C(=O)N[C@@H](C(=O)N[C@@H]2C(=O)N3C(C(=O)O)=C(CSc4nnnn4C)CS[C@H]23)c2ccc(O)cc2)C(=O)C1=O [Cefoperazone] |  | 1.362 |  | 
CC(C)Cc1ccc(C(C)C(=O)O)cc1 (stereo not shown) [Ibuprofen] |  | 1.778 |  | 
CC(C)NCC(O)COc1ccc(CCOCC2CC2)cc1 (stereo not shown) [Betaxolol] | −3.187 | 2.398 |  | 
Cc1nnc(NS(=O)(=O)c2ccc(N)cc2)s1 [Sulfamethizole] | −4.000 | 1.000 |  | 
Nc1nc2c(ncn2COCCO)c(=O)[nH]1 [Acyclovir] |  | −0.097 |  | 
CN1CCN(C2=Nc3cc(Cl)ccc3Nc3ccccc32)CC1 [Clozapine] | −3.814 |  |  | 
NC[C@H]1CC[C@H](C(=O)O)CC1 [Tranexamic acid] | −4.000 | −0.301 |  | 
CC(C(=O)O)c1cccc(C(=O)c2ccccc2)c1 (stereo not shown) [Ketoprofen] |  | 1.505 |  | 
O=C(O)c1ccccc1O [Salicylic acid] |  | 0.602 |  | 
C[C@H]1C[C@@H]2[C@H]([C@@H](O)C[C@@]3(C)[C@H]2CC[C@]3(O)C(=O)CO)[C@@]2(C)C=CC(=O)C=C12 [Methylprednisolone] | −3.000 |  |  | 
CCOC(=O)C1=C(C)NC(C)=C(C(=O)OC)C1c1cccc(Cl)c1Cl (stereo not shown) [Felodipine] |  |  | −5.301 | 
CCN(CC)CCNC(=O)c1ccc(N)cc1 [Procainamide] |  | 1.176 |  | 
C=CCOc1ccccc1OCC(O)CNC(C)C (stereo not shown) [Oxprenolol] | −3.301 | 2.301 |  | 
CCN(CC)CC(=O)Nc1c(C)cccc1C [Lidocaine] |  | 1.771 |  | 

Compound | LogHSA ([1]; human) | LogMA [2] | LogHSA [1, 3] | LogHSA [1]
NS(=O)(=O)c1cc(C(=O)O)c(NCc2ccco2)cc1Cl [Furosemide] |  | 1.342 |  | 
COc1cc2nc(N3CCN(C(=O)c4ccco4)CC3)nc(N)c2cc1OC [Prazosin] |  | 2.544 |  | 
CO[C@@]1(NC(=O)CSCC#N)C(=O)N2C(C(=O)O)=C(CSc3nnnn3C)CS[C@@H]21 [Cefmetazole] |  | 1.079 |  | 
CCOC(=O)C1=C(COCCN)NC(C)=C(C(=O)OC)C1c1ccccc1Cl (stereo not shown) [Amlodipine] |  |  | −5.000 | 
Cc1cc(=O)n(-c2ccccc2)n1C [Antipyrine] |  | 1.146 |  | 
CN1[C@@H]2C[C@@H](OC(=O)[C@H](CO)c3ccccc3)C[C@H]1[C@@H]1O[C@@H]12 [Scopolamine] |  | 1.462 |  | 
N=C(N)NC(=O)c1nc(Cl)c(N)nc1N [Amiloride] |  | 0.301 |  | 
CN(C)CCCN1c2ccccc2Sc2ccccc21 [Promazine] |  | 3.823 | −3.301 | 
CC(=O)[C@H]1CC[C@H]2[C@@H]3CCC4=CC(=O)CC[C@]4(C)[C@H]3CC[C@]12C [Progesteron] |  | 3.843 | −6.189 | 
CCOC(=O)[C@H](CCc1ccccc1)N[C@@H](C)C(=O)N1CCC[C@H]1C(=O)O [Enalapril] | −2.959 | 1.000 |  | 
CCCCNc1cc(C(=O)O)cc(S(N)(=O)=O)c1Oc1ccccc1 [Bumetanide] | −5.076 | 2.279 |  | 
CC(=O)Nc1ccc(O)cc1 [Paracetamol] | −2.000 | 0.778 |  | 
COc1ccc(Cl)cc1C(=O)NCCc1ccc(S(=O)(=O)NC(=O)NC2CCCCC2)cc1 [Glibenclamid] |  | 2.301 |  | −6.221
CC(C)NCC(O)COc1cccc2[nH]ccc12 (stereo not shown) [Pindolol] | −2.699 | 2.398 |  | 
CCC1(c2ccccc2)C(=O)NC(=O)NC1=O [Phenobarbital] |  |  | −2.854 | 
CC(=O)CC(c1ccccc1)c1c(O)c2ccccc2oc1=O (stereo not shown) [Warfarin] |  | 1.505 |  | 
CC(C)=CCN1CCC2(C)c3cc(O)ccc3CC1C2C (stereo not shown) [Pentazocin] |  | 2.633 | −2.510 | 
Cc1onc(-c2c(Cl)cccc2Cl)c1C(=O)N[C@@H]1C(=O)N2[C@@H]1SC(C)(C)[C@@H]2C(=O)O [Dicloxacillin] | −4.064 | 2.079 |  | 
CN1C(=O)CN=C(c2ccccc2)c2cc(Cl)ccc21 [Diazepam] |  | 3.170 |  | 
CC(=O)Oc1ccccc1C(=O)O [Acetylsalicylic acid] | −3.097 | 0.301 |  | 
C[C@H](CS)C(=O)N1CCC[C@H]1C(=O)O [Captopril] | −3.222 | 0.477 |  | 
CC1(C)S[C@@H]2[C@H](NC(=O)COc3ccccc3)C(=O)N2[C@H]1C(=O)O [Phenoxymethyl penicillinic acid] |  | 1.146 |  | −3.102
C[C@]12C=CC(=O)C=C1CC[C@@H]1[C@@H]2[C@@H](O)C[C@@]2(C)[C@H]1CC[C@]2(O)C(=O)CO [Prednisolone] |  | 2.568 |  | 
COc1ccc2c(c1)c(CC(=O)O)c(C)n2C(=O)c1ccc(Cl)cc1 [Indomethacin] |  | 2.255 |  | 
CC1=C(C(=O)O)N2C(=O)[C@@H](NC(=O)[C@H](N)c3ccc(O)cc3)[C@H]2SC1 [Cefadroxil] |  | 1.079 |  | 
